Here are results for 12 compounds from patent US20030139609A1, “Aziridinyl quinone antitumor agents based on indoles and cyclopent[b]indoles” (priority 2001, published 2003).

Like-named read-outs stand apart in the source and are kept apart here. Where only a bound is given, the exact number is not on record here.

By GI50 is commonly meant the concentration that inhibits growth by half.

The test system of data set [1] is NCI-H460 non-small-lung cancer cell line. Description: NCI In Vitro Cell Line Screening, NSC H460 cell line. The format is cell-based. Conditions: Homo sapiens, NCI-H460, concentration for 50% growth inhibition; read-out: Log GI50 NSC H460 (converted). From the text:
Cytotoxic and Cytostatic Screening of Series 1-9.

Data set [2] has as its system 600 bp calf thymus DNA. Description: DNA reductive alkylation by catalytically reduced aziridinyl quinones. It counts as biochemical. Conditions: for DNA alkylation percentage: catalytic reduction, anaerobic, pH 7.4 tris buffer, 30° C., 24 h, absorbance at 550 nm. The protocol:
DNA Alkylation Screening of Series 1-9. The extent of DNA reductive alkylation was determined by catalytic reduction of the aziridinyl quinones in the presence of 600 bp calf thymus DNA. Oxidative workup afforded DNA colored blue as a result of the aminoquinone chromophore. […] The anaerobic conditions employed for DNA reductive alkylation assays is not meant to mimic the environment of tumor cells. These conditions do permit an accurate assessment of the structural requirements for DNA alkylation by the hydroquinone species. To be sure, agents incapable of akylating DNA under these ideal conditions will not do so in the typical cellular environment.
Alkylation of DNA by Reduced Indoloquinones. To a mixture of 1-2 mg of sonicated (600 bp) calf thymus DNA in 2.0 mL of 0.05 M of pH 7.4 tris buffer and 2 mg of Pd on carbon was added a five-to-one base pair equivalent amount of the indoloquinone dissolved in 0.5 mL of dimethylsulfoxide. The resulting solution was degassed under argon for 30 min., after which the mixture was purged with H2 for 10 min. The solution was then purged with argon for 10 min. and placed in a 30° C. bath for 24 h. The reaction was opened to the air and the catalyst was removed with a Millex-PF […] syringe filter. The filtrate was adjusted to 0.3 M acetate with a 3 M stock solution of pH 5.1 acetate and then diluted with two volumes of ethanol. The mixture was chilled at −20° C. for 12 h and the DNA pellet collected by centrifuging at 12,000 g for 20 min. The pellet was redissolved in water and then precipitated and centrifuged again. The resulting blue or red pellet was suspended in ethanol, centrifuged, and dried. The dried pellet was weighed and dissolved in 1 mL of double distilled water resulting in a clear colored solution with […]max˜550 nm, □˜750 M^−1 cm^−1. This is the chromophore of the aminoquinone resulting from nucleophile-mediated opening of the aziridine ring. Model 2′-chloroethyl aminoquinones for extinction coefficient determination were prepared by treatment of the indoloquinone with HCl. {Skibo, E. B. and Xing, C., Chemistry and DNA Alkylation Reactions of Aziridinyl Quinones: Development of an Efficient Alkylating Agent of the Phosphate Backbone, Biochemistry, 1998, 37, 15199-15213}.

Data set [3] concerns B16 melanoma. In words: animal or person. It counts as in vivo. Conditions: for in vivo toxicity (in words) / in vivo antitumor activity (in words): 2, 3 or 5 mg/kg/day; for response vs control in vivo at 2 mg/kg / response vs control in vivo at 3 mg/kg / response vs control in vivo at 5 mg/kg: Mus musculus, B16, 600 h, read-out: In vivo T/C (Treated/Control). An excerpt:
Shown in Tables 6 and 7 are B16 melanoma syngraft assays {Griswold, D. P., Consideration of the Subcutaneously Implanted B16 Melanoma as a Screening Model for Potential Anticancer Agents, Cancer Chemother Reports, 1972, 3, 315-324} of some members of Series 1-9, as well as related compounds previously reported from this laboratory. {Xing, C. G., Wu, P., Skibo, E. B., and Dorr, R. T., Design of cancer-specific antitumor agents based on aziridlinylcyclopent[b]indoloquinones, J. Med. Chem., 2000, 43, 457-466}. Each agent was evaluated at three doses in C57/bl mice: 2, 3 or 5 mg/kg/day, on days 1, 5, and 9 after subcutaneous tumor implantation of 10^5 cells in the front flank on day 0. “Toxic” means that there was early lethality, or ≧50% lethality prior to any deaths in the control group. The treated over control values (T/C) were measured at day 25 of the study. A T/C value <40% is considered active.
In vivo Evaluation. The B-16 melanoma in C57/bl mice syngraft model was employed to determine in vivo activity. {Griswold, D. P., Consideration of the Subcutaneously Implanted B16 Melanoma as a Screening Model for Potential Anticancer Agents, Cancer Chemother Reports, 1972, 3, 315-324}. Each agent was evaluated at three doses: 2, 3 or 5 mg/kg/day, on days 1, 5, and 9 after subcutaneous tumor implantation of 10^5 cells in the front flank on day 0. “Toxic” means that there was early lethality, or ≧50% lethality prior to any deaths in the control group. The treated over control values (T/C) were measured at day 25 of the study. A T/C value<40% is considered active. […] The control was obtained with drug-free animals.

Setting [4] is: 5 mg/Kg/Day on days 1, 5, 9, T/C at day 25, <40% active.
[5] abbreviates: 2 mg/Kg/Day on days 1, 5, 9, T/C at day 25, <40% active.
Setting [6] is: 3 mg/Kg/Day on days 1, 5, 9, T/C at day 25, <40% active.

Consider `CC1=C(N2CC2)C(=O)c2c([nH]c3c2CCC3O)C1=O` (stereo not shown) [Compound 2a, 7-Aziridinyl-3-hydroxy-6-methyl-1,2,3,4-tetrahydrocyclopent[b]indole-5,8-dione], for which the GI50 in data set [1] is 10 nM. For the same compound, the DNA alkylation percentage in data set [2] came to 11.2%.

Take `CC(=O)OC1CCc2c1[nH]c1c2C(=O)C=C(N2CC2)C1=O` (stereo not shown) [Compound 3b, 3-Acetoxy-6-aziridinyl-1,2,3,4-tetrahydrocyclopent[b]indole-5,8-dione]: in data set [3] (setting [4]), the “In vivo T/C (Treated/Control)” value is listed as “Toxic (“Toxic” means ≧ 50% lethality before any control growth deaths)”. Moreover, in data set [2], the DNA alkylation percentage is on record as 29%.

As for `CC(=O)OC1CCc2c3c(n(C(C)=O)c21)C(=O)C(N1CC1)=CC3=O` (stereo not shown) [Compound 3c, 6-Aziridinyl-3-acetoxy-4-acetyl-1,2,3,4-tetrahydrocyclopent[b]indole-5,8-dione], in data set [3], the “in vivo toxicity (in words)” value was “toxic”, the response vs control in vivo at 2 mg/kg was above 50%, the response vs control in vivo at 3 mg/kg was above 50% and the response vs control in vivo at 5 mg/kg was above 50%.

As to `O=C1C=C(N2CC2)C(=O)c2c1[nH]c(CO)c2CO` [Compound 6a, 5-Aziridinyl-2,3-di(hydroxymethyl)indole-4,7-dione], the “In vivo T/C (Treated/Control)” value in data set [3] (setting [5]), in data set [3] (setting [6]) and in data set [3] (setting [4]) was “Toxic (“Toxic” means ≧ 50% lethality before any control growth deaths)” each time. Besides, the DNA alkylation percentage in data set [2] was 16.7%.

For `CC(=O)OCc1[nH]c2c(c1COC(C)=O)C(=O)C(N1CC1)=CC2=O` [Compound 6e, 5-Aziridinyl-2,3-di(acetoxymethyl)indole-4,7-dione], in data set [2], the “DNA alkylation (in words)” value is “high DNA alkylation percentages” and the DNA alkylation percentage worked out at 43%.

Consider `CC1=C(N2CC2)C(=O)c2[nH]c(CO)c(CO)c2C1=O` [Compound 8a, 6-Aziridinyl-2,3-di(hydroxymethyl)-5-methylindole-4,7-dione], for which the “In vivo T/C (Treated/Control)” value in data set [3] (setting [6]) and in data set [3] (setting [4]) was “Toxic (“Toxic” means ≧ 50% lethality before any control growth deaths)” in each case. Further, the response vs control in vivo at 2 mg/kg in data set [3] (setting [5]) is 54%. In data set [2], this compound came in with a DNA alkylation percentage of 4%.

As for `COC1CCc2c1[nH]c1c2C(=O)C(C)=C(N2CC2)C1=O` (stereo not shown) [reference compound], the “in vivo toxicity (in words)” value in data set [3] was “toxicity only seen at the highest dose”.

Regarding `CC1=C(N2CC2)C(=O)c2[nH]c(C)c(C)c2C1=O` [reference compound], in data set [3], the response vs control in vivo at 2 mg/kg came to 22%, the response vs control in vivo at 3 mg/kg is above 50% and the response vs control in vivo at 5 mg/kg is above 50%.

Consider `CC1=C(N2CC2)C(=O)c2c([nH]c(C)c2C)C1=O` [reference compound], for which, in data set [3] (setting [4]), the “In vivo T/C (Treated/Control)” value is “Toxic (“Toxic” means ≧ 50% lethality before any control growth deaths)”. Moreover, the response vs control in vivo at 2 mg/kg in data set [3] (setting [5]) worked out at 10%. Besides, the response vs control in vivo at 3 mg/kg in data set [3] (setting [6]) is 60%.

For `CC1=C(N2CC2)C(=O)c2[nH]c(CO)c(C)c2C1=O` [reference compound], in data set [3], the “in vivo antitumor activity (in words)” value is reported as “antitumor activity is retained” and the “in vivo toxicity (in words)” value is listed as “without much toxicity”. Besides, the response vs control in vivo at 2 mg/kg in data set [3] (setting [5]) is 61%. Further, in data set [3] (setting [6]), the response vs control in vivo at 3 mg/kg is 37%. Moreover, the response vs control in vivo at 5 mg/kg in data set [3] (setting [4]) is 34%.

`CC(=O)OCc1[nH]c2c(c1C)C(=O)C(C)=C(N1CC1)C2=O` [reference compound]: the “in vivo antitumor activity (in words)” value in data set [3] was “inactive at all doses”.

For `CC(=O)OCc1[nH]c2c(c1C)C(=O)C(N1CC1)=C(C)C2=O` [reference compound], the “In vivo T/C (Treated/Control)” value in data set [3] (setting [6]) and in data set [3] (setting [4]) was “Toxic (“Toxic” means ≧ 50% lethality before any control growth deaths)” each time. In addition, the response vs control in vivo at 2 mg/kg in data set [3] (setting [5]) is 47%.
